# In paper PMC4559079 (Journal of Hematology & Oncology, 2015):
# Values joined by “and” are separate entries in the source; they are usually repeats but may differ in a detail not shown here. Equal entries are not always repeated. “Also recorded” adds a separate entry of the source. Where two headings read alike, the source gives them in different places.
# What was measured:
# [1] = Plasma PK of ixazomib given with lenalidomide–dexamethasone, phase 1 study in East Asian patients with RRMM (LC/MS/MS, non-compartmental analysis); type: in vivo, human; settings: for Accumulation ratio: day 15 AUC0–168/day 1 AUC0–168; for DN AUC0–168 / DN C max: dose-normalized; for Tmax / half-life / Cmax / AUC(0-t): human, plasma; for AUC(0-t): read-out: AUC0–168
# Description: Plasma PK parameters were calculated for patients in the safety population following administration of ixazomib on cycle 1 day 1 and/or cycle 1 day 15 provided sufficient concentration–time data were available, the patient had received the protocol-specified ixazomib dosing regimen during cycle 1, and no excluded concomitant medications were received during the PK sampling period. PK parameters were estimated using non-compartmental analysis methods from the ixazomib concentration versus time data. The analyses were performed using Phoenix WinNonlin version 6.2 (Pharsight, Princeton, NJ). PK parameters were summarized, as appropriate, using descriptive statistics. DN AUC data in East Asian patients were compared with data for Western patients, pooled from three phase 1/2 trials of patients with RRMM (NCT00963820), NDMM (NCT01217957), and relapsed/refractory AL amyloidosis (NCT01318902).
# [2] = design: method as in PMID 24904120, PMID 25456369; settings: Western patients, pooled from three studies, single agent or with lenalidomide–dexamethasone, cited from earlier work
# [3] = design: method as in PMID 25377318; settings: Western patients, cited from earlier work
# [4] = ixazomib with lenalidomide and dexamethasone; Western patients with NDMM; cited from earlier work
# [5] = cycle 1 day 1, Chinese, geometric mean (% CV)
# [6] = cycle 1 day 1, Korean, geometric mean (% CV)
# [7] = cycle 1 day 1, Other, geometric mean (% CV)
# [8] = cycle 1 day 15, Chinese, geometric mean (% CV)
# [9] = cycle 1 day 15, Korean, geometric mean (% CV)
# [10] = cycle 1 day 15, Other, geometric mean (% CV)
# [11] = po, cycle 1 day 1, Chinese, geometric mean (% CV), 4.0 mg oral + lenalidomide–dexamethasone
# [12] = po, cycle 1 day 1, Korean, geometric mean (% CV), 4.0 mg oral + lenalidomide–dexamethasone
# [13] = po, cycle 1 day 1, Other, geometric mean (% CV), 4.0 mg oral + lenalidomide–dexamethasone
# [14] = po, cycle 1 day 1, Overall, geometric mean (% CV), 4.0 mg oral + lenalidomide–dexamethasone
# [15] = po, cycle 1 day 15, Chinese, geometric mean (% CV), 4.0 mg oral + lenalidomide–dexamethasone
# [16] = po, cycle 1 day 15, Korean, geometric mean (% CV), 4.0 mg oral + lenalidomide–dexamethasone
# [17] = po, cycle 1 day 15, Other, geometric mean (% CV), 4.0 mg oral + lenalidomide–dexamethasone
# [18] = po, cycle 1 day 15, Overall, geometric mean (% CV), 4.0 mg oral + lenalidomide–dexamethasone
smiles,measurement,setting,value
CC(C)C[C@H](NC(=O)CNC(=O)c1cc(Cl)ccc1Cl)B(O)O [ixazomib],"difference in geometric mean DN AUC0–168, East Asian vs Western patients (higher)","[1]; day 1 of dosing, 194 vs 152 ng*h/mL/mg",28%
same,"difference in geometric mean DN AUC0–168, East Asian vs Western patients (higher)","[1]; day 15, 401 vs 269 ng*h/mL/mg",49%
same,Accumulation ratio,"[1]; Chinese, geometric mean (% CV)",2.38 (30)
same,Accumulation ratio,"[1]; Korean, geometric mean (% CV)",2.34 (40)
same,Accumulation ratio,"[1]; Other, geometric mean (% CV)",2.56 (33)
same,DN AUC0–168,[1]; [5],233 (83) h*ng/mL/mg
same,DN C max,[1]; [5],12.6 (102) ng/mL/mg
same,DN AUC0–168,[1]; [6],157 (47) h*ng/mL/mg
same,DN C max,[1]; [6],5.53 (99) ng/mL/mg
same,DN AUC0–168,[1]; [7],180 (63) h*ng/mL/mg
same,DN C max,[1]; [7],8.93 (118) ng/mL/mg
same,DN AUC0–168,"[1]; cycle 1 day 1, Overall East Asian, geometric mean (% CV)",194 [78 % CV] h*ng/mL/mg and 194 (78) h*ng/mL/mg
same,DN C max,"[1]; cycle 1 day 1, Overall, geometric mean (% CV)",8.45 (115) ng/mL/mg
same,DN AUC0–168,[1]; [8],438 (39) h*ng/mL/mg
same,DN C max,[1]; [8],12.6 (71) ng/mL/mg
same,DN AUC0–168,[1]; [9],362 (49) h*ng/mL/mg
same,DN C max,[1]; [9],9.51 (67) ng/mL/mg
same,DN AUC0–168,[1]; [10],383 (81) h*ng/mL/mg
same,DN C max,[1]; [10],10.6 (97) ng/mL/mg
same,DN AUC0–168,"[1]; cycle 1 day 15, Overall East Asian, geometric mean (% CV)",401 [48 % CV] h*ng/mL/mg and 401 (48) h*ng/mL/mg
same,DN C max,"[1]; cycle 1 day 15, Overall, geometric mean (% CV)",11.0 (72) ng/mL/mg
same,Tmax,"[1]; oral, days 1 and 15 of cycle 1, East Asian patients, with lenalidomide–dexamethasone, read-out: median time to maximum plasma concentration",1.5 to 2 h
same,half-life,"[1]; oral, geometric mean, after multiple dosing, overall East Asian patients, read-out: terminal half-life (converted)",146 h
same,half-life,"[1]; oral, terminal disposition phase, cycle 1 day 15, Chinese, geometric mean (% CV), read-out: t1/2 (converted)",148 h
same,half-life,"[1]; oral, terminal disposition phase, cycle 1 day 15, Korean, geometric mean (% CV), read-out: t1/2 (converted)",145 h
same,half-life,"[1]; oral, terminal disposition phase, cycle 1 day 15, Other, geometric mean (% CV), read-out: t1/2 (converted)",148 h
same,half-life,"[1]; oral, terminal disposition phase, cycle 1 day 15, Overall, geometric mean (% CV), read-out: t1/2 (converted)",147 h
same,Cmax,[1]; [11],50.6 ng/mL
same,AUC(0-t),[1]; [11],933 ng·h/mL
same,Tmax,"[1]; po, cycle 1 day 1, Chinese, median (range), 4.0 mg oral + lenalidomide–dexamethasone, read-out: T max",1.04 h
same,Cmax,[1]; [12],22.1 ng/mL
same,AUC(0-t),[1]; [12],630 ng·h/mL
same,Tmax,"[1]; po, cycle 1 day 1, Korean, median (range), 4.0 mg oral + lenalidomide–dexamethasone, read-out: T max",1.95 h
same,Cmax,[1]; [13],35.7 ng/mL
same,AUC(0-t),[1]; [13],720 ng·h/mL
same,Tmax,"[1]; po, cycle 1 day 1, Other, median (range), 4.0 mg oral + lenalidomide–dexamethasone, read-out: T max",1.75 h
same,Cmax,[1]; [14],33.8 ng/mL
same,AUC(0-t),[1]; [14],776 ng·h/mL
same,Tmax,"[1]; po, cycle 1 day 1, Overall, median (range), 4.0 mg oral + lenalidomide–dexamethasone, read-out: T max",1.5 h
same,Cmax,[1]; [15],50.3 ng/mL
same,AUC(0-t),[1]; [15],1750 ng·h/mL
same,Tmax,"[1]; po, cycle 1 day 15, Chinese, median (range), 4.0 mg oral + lenalidomide–dexamethasone, read-out: T max",2 h
same,Cmax,[1]; [16],38 ng/mL
same,AUC(0-t),[1]; [16],1450 ng·h/mL
same,Tmax,"[1]; po, cycle 1 day 15, Korean, median (range), 4.0 mg oral + lenalidomide–dexamethasone, read-out: T max",2 h
same,Cmax,[1]; [17],42.4 ng/mL
same,AUC(0-t),[1]; [17],1530 ng·h/mL
same,Tmax,"[1]; po, cycle 1 day 15, Other, median (range), 4.0 mg oral + lenalidomide–dexamethasone, read-out: T max",1.25 h
same,Cmax,[1]; [18],43.9 ng/mL
same,AUC(0-t),[1]; [18],1610 ng·h/mL
same,Tmax,"[1]; po, cycle 1 day 15, Overall, median (range), 4.0 mg oral + lenalidomide–dexamethasone, read-out: T max",2 h
same,DLT-evaluable patients experiencing DLTs,"cycle 1, 4.0 mg ixazomib with lenalidomide–dexamethasone",2 of 24
same,dose-limiting toxicities in the first six patients,"starting dose 4.0 mg ixazomib, cycle 1, with lenalidomide–dexamethasone",No dose-limiting toxicities; also recorded: no DLTs
same,recommended phase 2/3 dose (RP2/3D),"weekly oral ixazomib with lenalidomide–dexamethasone, East Asian patients with RRMM",4.0 mg
same,geometric mean DN AUC0–168,[2]; day 1 of dosing,152 [95 % CV] ng*h/mL/mg
same,geometric mean DN AUC0–168,[2]; day 15,269 [44 % CV] ng*h/mL/mg
same,MTD,[3],2.97 mg/m^2
same,"MTD, equated to fixed dose",[3]; equates to 2.97 mg/m^2,5.5 mg
same,recommended phase 2/3 dose (RP2/3D),[4],4.0 mg
